Assay results from paper PMC12888861, “Antibacterial activity of enmetazobactam against Acinetobacter spp.: a molecular dissection of mechanism of action and resistance determinants” (Antimicrobial Agents and Chemotherapy, 2025).

Tested on: carbapenem-resistant A. baumannii (CRAB) isolates (n = 67)
Experiment: MIC, broth microdilution (EUCAST), carbapenem-resistant A. baumannii isolates
Assay type: cell-based, Acinetobacter baumannii
Settings: for MIC: Acinetobacter baumannii
Source text: The bacterial strains used in this study comprised 208 clinical isolates from the Spanish National Acinetobacter spp. 2020 Multicenter Collection, which was previously characterized in detail by our research group, including whole-genome sequencing, phylogenetics studies, clonal dynamics, and resistance mechanisms ([2], [29]). Additionally, a collection of A. baumannii ATCC 17978 transformants coding the blaOXA-23, blaOXA-24/40, blaOXA-51, blaOXA-58, blaOXA-143, and blaOXA-201 genes, previously constructed and described by our group ([30]), was used to determine the activity of enmetazobactam against strains carrying the main CHDLs of A. baumannii.
The antimicrobial susceptibility of the 208 Acinetobacter spp. isolates was assessed using the broth microdilution method, as described in the European Committee on Antimicrobial Susceptibility Testing (EUCAST) v.15 guidelines (http://www.eucast.org/clinical_breakpoints). […] MICs for enmetazobactam alone were assessed as well. […] Subsequently, MIC testing was also conducted with a collection of A. baumannii ATCC 17978 transformants expressing clinically relevant OXA-like carbapenemase genes.
The A. baumannii ATCC 19606 strain was used as the reference strain in all susceptibility experiments, in duplicate assays. Antibiotics were purchased from Sigma-Aldrich, except enmetazobactam and durlobactam, which were obtained from Advanz Pharma and MedChemExpress, respectively.

[1] = CHDLs-producing A. baumannii isolates (n = 67), durlobactam series, DUR fixed 4 mg/L in combinations

`CC1(C)[C@H](C(=O)O)N2C(=O)C[C@H]2S1(=O)=O` [sulbactam] was tested, and the MIC (isolate Ab181, ST 2, ADC-30, OXA-66, OXA-23, ETZ fixed 8 mg/L in combinations) was 16 µg/mL, the MIC (isolate Ab182, ST 2, ADC-30, OXA-66, OXA-23, DUR fixed at 4 mg/L in combinations) was 8 µg/mL and the MIC (isolate Ab182, ST 2, ADC-30, OXA-66, OXA-23, ETZ fixed 8 mg/L in combinations) was 8 µg/mL. It also gave an MIC (isolate Ab183, ST 2, ADC-30, OXA-66, OXA-23, DUR fixed at 4 mg/L in combinations) of 8 µg/mL, an MIC (isolate Ab183, ST 2, ADC-30, OXA-66, OXA-23, ETZ fixed 8 mg/L in combinations) of 8 µg/mL and an MIC (isolate Ab184, ST 2, ADC-30, OXA-66, OXA-23, DUR fixed at 4 mg/L in combinations) of 16 µg/mL. It also gave an MIC (isolate Ab184, ST 2, ADC-30, OXA-66, OXA-23, ETZ fixed 8 mg/L in combinations) of 16 µg/mL, an MIC (isolate Ab186, ST 2, ADC-30, OXA-66, OXA-23, DUR fixed at 4 mg/L in combinations) of 16 µg/mL and an MIC (isolate Ab186, ST 2, ADC-30, OXA-66, OXA-23, ETZ fixed 8 mg/L in combinations) of 16 µg/mL. For the same molecule, the MIC (isolate Ab191, ST 2, ADC-30, OXA-66, OXA-23, DUR fixed at 4 mg/L in combinations) was 16 µg/mL, the MIC (isolate Ab191, ST 2, ADC-30, OXA-66, OXA-23, ETZ fixed 8 mg/L in combinations) was 16 µg/mL and the MIC (isolate Ab192, ST 2, ADC-30, OXA-66, OXA-23, DUR fixed at 4 mg/L in combinations) was 16 µg/mL. The MIC (isolate Ab192, ST 2, ADC-30, OXA-66, OXA-23, ETZ fixed 8 mg/L in combinations) was 16 µg/mL, the MIC (isolate Ab194, ST 2, ADC-30, OXA-66, OXA-23, DUR fixed at 4 mg/L in combinations) was 16 µg/mL and the MIC (isolate Ab194, ST 2, ADC-30, OXA-66, OXA-23, ETZ fixed 8 mg/L in combinations) was 16 µg/mL. For the same molecule, the MIC (isolate Ab199, ST 2, ADC-30, OXA-66, OXA-23, DUR fixed at 4 mg/L in combinations) was 16 µg/mL, the MIC (isolate Ab199, ST 2, ADC-30, OXA-66, OXA-23, ETZ fixed 8 mg/L in combinations) was 16 µg/mL and the MIC (isolate Ab201, ST 2, ADC-30, OXA-66, OXA-23, DUR fixed at 4 mg/L in combinations) was 16 µg/mL. The MIC (isolate Ab201, ST 2, ADC-30, OXA-66, OXA-23, ETZ fixed 8 mg/L in combinations) was 16 µg/mL, the MIC (isolate Ab204, ST 2, ADC-30, OXA-66, OXA-23, DUR fixed at 4 mg/L in combinations) was 16 µg/mL and the MIC (isolate Ab204, ST 2, ADC-30, OXA-66, OXA-23, ETZ fixed 8 mg/L in combinations) was 8 µg/mL. For the same molecule, the MIC50 [1] was 16 µg/mL, the MIC90 [1] was 32 µg/mL and the “MIC distribution 0.12” value (cumulative % of CHDLs-producing A. baumannii isolates (n = 67) at MIC 0.12 mg/L, DUR fixed 4 mg/L in combinations) was 0.0%. For the same molecule, the “MIC distribution 0.25” value (cumulative % of CHDLs-producing A. baumannii isolates (n = 67) at MIC 0.25 mg/L, DUR fixed 4 mg/L in combinations) was 0.0%, the “MIC distribution 0.5” value (cumulative % of CHDLs-producing A. baumannii isolates (n = 67) at MIC 0.5 mg/L, DUR fixed 4 mg/L in combinations) was 0.0% and the “MIC distribution 1” value (cumulative % of CHDLs-producing A. baumannii isolates (n = 67) at MIC 1 mg/L, DUR fixed 4 mg/L in combinations) was 0.0%. For the same molecule, the “MIC distribution 2” value (cumulative % of CHDLs-producing A. baumannii isolates (n = 67) at MIC 2 mg/L, DUR fixed 4 mg/L in combinations) was 13.4%, the “MIC distribution 4” value (cumulative % of CHDLs-producing A. baumannii isolates (n = 67) at MIC 4 mg/L, DUR fixed 4 mg/L in combinations) was 20.9% and the “MIC distribution 8” value (cumulative % of CHDLs-producing A. baumannii isolates (n = 67) at MIC 8 mg/L, DUR fixed 4 mg/L in combinations) was 34.3%. For the same molecule, the “MIC distribution 16” value (cumulative % of CHDLs-producing A. baumannii isolates (n = 67) at MIC 16 mg/L, DUR fixed 4 mg/L in combinations) was 89.6%, the “MIC distribution 32” value (cumulative % of CHDLs-producing A. baumannii isolates (n = 67) at MIC 32 mg/L, DUR fixed 4 mg/L in combinations) was 100% and the “MIC distribution 0.12” value (cumulative share of CRAB isolates (n = 67) at MIC 0.12 mg/L, ETZ fixed 8 mg/L in combinations) was 0. For the same molecule, the “MIC distribution 0.25” value (cumulative share of CRAB isolates (n = 67) at MIC 0.25 mg/L, ETZ fixed 8 mg/L in combinations) was 0, the “MIC distribution 0.5” value (cumulative share of CRAB isolates (n = 67) at MIC 0.5 mg/L, ETZ fixed 8 mg/L in combinations) was 0 and the “MIC distribution 1” value (cumulative share of CRAB isolates (n = 67) at MIC 1 mg/L, ETZ fixed 8 mg/L in combinations) was 0. For the same molecule, the “MIC distribution 2” value (cumulative share of CRAB isolates (n = 67) at MIC 2 mg/L, ETZ fixed 8 mg/L in combinations) was 14.9, the “MIC distribution 4” value (cumulative share of CRAB isolates (n = 67) at MIC 4 mg/L, ETZ fixed 8 mg/L in combinations) was 17.9 and the “MIC distribution 8” value (cumulative share of CRAB isolates (n = 67) at MIC 8 mg/L, ETZ fixed 8 mg/L in combinations) was 34.3. For the same molecule, the “MIC distribution 16” value (cumulative share of CRAB isolates (n = 67) at MIC 16 mg/L, ETZ fixed 8 mg/L in combinations) was 89.6, the “MIC distribution 32” value (cumulative share of CRAB isolates (n = 67) at MIC 32 mg/L, ETZ fixed 8 mg/L in combinations) was 100 and the “MIC distribution 64” value (cumulative share of CRAB isolates (n = 67) at MIC 64 mg/L, ETZ fixed 8 mg/L in combinations) was 100.
